The source of these data is patent US20240317792A1, “CYCLIC DINUCLEOTIDE METAL COMPOUND, AND PREPARATION AND APPLICATION THEREOF” (HANGZHOU XINGAO BIOTECHNOLOGY CO., LTD., priority 2022, published 2024).

Test [1] concerns amyloid plaques in the brains of the AD model mice. As to the kind of experiment: Thioflavin S dyeing of amyloid plaque deposition in brains of AD model mice. In kind it is in vivo. The conditions noted are these: 10 mg/kg intraperitoneal once every 2 days, 60 days. The source says:
Experimental materials, purchased from Shanghai Model Organisms Center Inc, were APP/PSI transgenic AD model mice, aged 4 months old and weighing 24-26 g. The AD model mice were randomly divided into 7 groups (10 mice in each group). The 7 groups were listed as follows: A: AD model group, as a negative control group (administration of normal saline); B: cGAMP group, as a positive control group (administration of cyclic dinucleotide); C: [Li2(cGAMP)] group (administration of lithium cyclic dinucleotide prepared in Example 1); D: [Mg(cGAMP)] group (administration of magnesium cyclic dinucleotide prepared in Example 2); E: [Zn(cGAMP)] group (administration of zinc cyclic dinucleotide prepared in Example 5); F: [Mn(cGAMP)] group (administration of manganese cyclic dinucleotide prepared in Example 3); G: [Fe(cGAMP)] group (administration of ferrous cyclic dinucleotide prepared in Example 4). The administration in groups C-G was performed as follows. The powdered cyclic dinucleotide metal compounds were prepared into solutions of required concentration with normal saline, respectively. The administration dosage was 10 mg/kg, and the administration was performed via intraperitoneal injection once every 2 days for 60 consecutive days.
This example conducted a Thioflavin S dyeing experiment including the following steps. 60 days after the drug administration, brain tissues of the AD model mice were taken and subjected to fixing, paraffin embedding, section, dimethylbenzene dewaxing, gradient dehydration with ethanol and washing with tris buffered saline (TBS) three times. 0.3 wt. % of Thioflavin S (dissolved in 50 wt. % of ethanol) was dropped onto the brain tissues. The brain tissues were incubated for 10 min followed by washing with 50 wt. % of ethanol, PBS-washing, shade drying and sealing. A laser scanning confocal microscope (Leica, Germany) was used to detect changes of an amount of amyloid plaque deposition in the brains of the AD model mice.

In test [2] the test system is mouse colorectal cancer cell line CT26. As to the kind of experiment: Subcutaneously transplanted CT26 tumor growth inhibition. It is filed as in vivo, BALB/c ordinary mice. The conditions noted are these: CT26 in BALB/c mice; 10 mg/kg intraperitoneal once every 2 days for 20 days. The source says:
(§1) Experimental animals: BALB/c ordinary mice and C57BL/6 ordinary mice, male, weighing 20-22 grams, 7-8 weeks old, purchased from Shanghai SLAC Laboratory Animal Co. Ltd.
(§2) Tumour cell line: mouse colorectal cancer cell line CT26 and mouse breast cancer cell line 4T1, both purchased from Chinese Academy of Sciences Cell Bank.
(§3) Establishment and intervention of tumor model mice: cells were subjected to culture and subculture, collected in a logarithmic phase and prepared as 1.0×10^7/mL of cell suspension. 0.2 mL of the cell suspension was injected armpits of forelegs of the mice (with a cell number of 2.0×10^6), and tumor transplantation was successful in about 7 days. Mice with successful tumor transplantation were randomly divided into 7 groups (10 mice in each group). The 7 groups were listed as follows: A: negative control group (injection with normal saline); B: positive control cGAMP group (10 mg/kg of injection); C: [Li2(cGAMP)] group (10 mg/kg of injection); D: [Mg(cGAMP)] group (10 mg/kg of injection); E: [Zn(cGAMP)] group (10 mg/kg of injection); F: [Mn(cGAMP)] group (10 mg/kg of injection); and G: [Fe(cGAMP)] group (10 mg/kg of injection). The mice with successful tumor transplantation were subjected to administration by intraperitoneal injection with a volume of 200 μL per mice once every 2 days for 20 days. After 20 days, the mice with successful tumor transplantation were killed, and the tumor were weighed. A formula of inhibitory rate of tumor was as represented as inhibitory rate of tumor=[1−average tumor weight of experimental group/average tumor weight of the negative control group]×100%.
(§4) According to the establishment of tumor model mice, the mouse colorectal cancer cell line CT26 was cultured and transplanted to the BALB/c ordinary mice, and the mouse breast cancer cell line 4T1 was cultured and transplanted to the BALB/c ordinary mice.
(§5) Statistical analysis: data was expressed as mean±standard deviation and processed by the SPSS10.0 software. One-way ANOVA was used to detect and compare significance of tumor weights in each group.

In test [3] the test system is mouse breast cancer cell line 4T1. The test is described as follows: Subcutaneously transplanted 4T1 tumor growth inhibition. The conditions noted are these: 4T1 in BALB/c mice; 10 mg/kg intraperitoneal once every 2 days for 20 days. It is filed as in vivo, BALB/c ordinary mice.
Excerpt: as §1, §2, §3, §4, §5

The test system of test [4] is Dendritic cells (DCs) (CD40\CD80\CD86\MHCII). The test is described as follows: Flow cytometry of dendritic cell activation markers after immunization. In kind it is in vivo, C57BL/6 ordinary mice. The note with it: fluorescence intensity (MFI), after 14 days of immunization. The source says: (§6) Experimental animals: C57BL/6 ordinary mice, male, weighing 20-22 grams, 7-8 weeks old, purchased from Shanghai SLAC Laboratory Animal Co. Ltd.
(§7) The mice were randomly divided into 8 groups (10 mice in each group). The 8 groups were as listed follows: A: Negative control group (isotype control antibody group); B: blank group; C: cyclic dinucleotide group; D: [Li2(cGAMP)] group; E: [Mg(cGAMP)] group; F: [Zn(cGAMP)] group; G: [Mn(cGAMP)] group; and H: [Fe(cGAMP)] group. Isotype control flow antibody was purchased from eBiosciences, antibody magnetic strain was purchased from Militeny Biotech, and flow cytometry was purchased from BD company. After 14 days of immunization (immunization process was the same as that in the Example 12), spleens and lung tissues of the mice were collected, respectively mashed, filtered through 40 micron pores followed by 1000 rpm of centrifugation for 10 min to solate unlysed immune cells. Dendritic cells (DCs) (CD40\CD80\CD86\MHCII), T(CD8+) cells were separated, and added with corresponding FAC antibodies (diluted with Fluorescence-Activated Cell Sorting (FACS) buffer). Isotype control antibody was used as negative control. After antibody addition, the DCs and T (CD8+) cells were incubate for 1 h, centrifuged and washed by phosphate buffer saline (PBS) followed by analysis by the flow cytometry to sort suitable cells. Fluorescence intensity (MFI) of sorted cells was measured.
A general note: In flow cytometry, cells or beads pass a laser one at a time.

Test [5] concerns T(CD8+) cells. As to the kind of experiment: Flow cytometry of CD8+ T cells in spleen and lung after immunization. The conditions noted are these: after 14 days of immunization. In kind it is in vivo, C57BL/6 ordinary mice.
Excerpt: as §6, §7

As to `Nc1nc2c(ncn2C2OC3COP(=O)([O-])OC4C(COP(=O)([O-])OC2C3O)OC(n2cnc3c(N)ncnc32)C4O)c(=O)[nH]1.[Fe+2]` (stereo not drawn) [[Fe(cGAMP)], ferrous cyclic dinucleotide], in test [1], the “Average points of amyloid plaque fluorescence intensity in the brain tissues of the AD mice (field of vision)” value (“Average points” for short) amounted to 410 ± 91. In test [2], the “Average inhibitory rate of the tumor” value is reported as 83.5% and the Average tumor weight was 0.301 ± 0.112 g. In addition, in test [3], the “Average inhibitory rate of tumor” value turned out to be 83.6% and the Average tumor weight is given as 0.301 ± 0.116 g. For the same molecule, in test [4], the “Spleen CD40” value was 236.8, the “Spleen CD80” value turned out to be 134.6, the “Spleen CD86” value is 24.1 and the “Spleen MGCII” value was determined as 247.1. In test [5], the “Lung (% CD8 + T cells)” value worked out at 0.7 ± 0.3% and the “Spleen (% CD8 + T cells)” value is on record as 6.9 ± 1.2%.
In the case of `Nc1nc2c(ncn2[C@@H]2O[C@@H]3COP(=O)([O-])O[C@H]4[C@@H](O)[C@H](n5cnc6c(N)ncnc65)O[C@@H]4COP(=O)([O-])O[C@@H]2[C@@H]3O)c(=O)[nH]1.[Li+].[Li+]` [[Li2(cGAMP)], lithium cyclic dinucleotide], the “Average points” value in test [1] is given as 165 ± 75. Moreover, in test [2], the “Average inhibitory rate of the tumor” value is 63.0% and the Average tumor weight was determined as 0.675 ± 0.163 g. For the same molecule, in test [3], the “Average inhibitory rate of tumor” value turned out to be 61.5% and the Average tumor weight came out at 0.712 ± 0.146 g. Further, in test [4], the “Spleen CD40” value is 136.2, the “Spleen CD80” value worked out at 157.6, the “Spleen CD86” value worked out at 21.7 and the “Spleen MGCII” value was found to be 250.8. Besides, in test [5], the “Lung (% CD8 + T cells)” value stood at 0.6 ± 0.2% and the “Spleen (% CD8 + T cells)” value was determined as 3.1 ± 0.3%.
`Nc1nc2c(ncn2[C@@H]2O[C@@H]3COP(=O)([O-])O[C@H]4[C@@H](O)[C@H](n5cnc6c(N)ncnc65)O[C@@H]4COP(=O)([O-])O[C@@H]2[C@@H]3O)c(=O)[nH]1.[Mg+2]` [[Mg(cGAMP)], magnesium cyclic dinucleotide]: the “Average points” value in test [1] is on record as 480 ± 80. Further, in test [2], the “Average inhibitory rate of the tumor” value was 65.2% and the Average tumor weight is given as 0.635 ± 0.178 g. In test [3], the “Average inhibitory rate of tumor” value turned out to be 63.2% and the Average tumor weight was determined as 0.679 ± 0.183 g. Also, in test [4], the “Spleen CD40” value amounted to 156.6, the “Spleen CD80” value stood at 234.6, the “Spleen CD86” value was 36.8 and the “Spleen MGCII” value amounted to 338.2. Further, in test [5], the “Lung (% CD8 + T cells)” value was found to be 1.7 ± 0.3% and the “Spleen (% CD8 + T cells)” value came out at 6.2 ± 0.6%.
Consider `Nc1nc2c(ncn2C2OC3COP(=O)([O-])OC4C(COP(=O)([O-])OC2C3O)OC(n2cnc3c(N)ncnc32)C4O)c(=O)[nH]1.[Mn+2]` (stereo not drawn) [[Mn(cGAMP)], manganese cyclic dinucleotide], for which, in test [1], the “Average points” value turned out to be 390 ± 87. In test [2], the “Average inhibitory rate of the tumor” value is 85.8% and the Average tumor weight stood at 0.258 ± 0.105 g. Further, in test [3], the “Average inhibitory rate of tumor” value was 84.9% and the Average tumor weight came out at 0.287 ± 0.116 g. In test [4], the “Spleen CD40” value is on record as 255.9, the “Spleen CD80” value was 132.6, the “Spleen CD86” value came to 26.3 and the “Spleen MGCII” value is 276.3. In test [5], the “Lung (% CD8 + T cells)” value came to 0.8 ± 0.3% and the “Spleen (% CD8 + T cells)” value is reported as 7.5 ± 1.3%.
`Nc1nc2c(ncn2[C@@H]2O[C@@H]3COP(=O)([O-])O[C@H]4[C@@H](O)[C@H](n5cnc6c(N)ncnc65)O[C@@H]4COP(=O)([O-])O[C@@H]2[C@@H]3O)c(=O)[nH]1.[Zn+2]` [[Zn(cGAMP)], zinc cyclic dinucleotide]: the “Average points” value in test [1] is listed as 360 ± 75. In test [2], the “Average inhibitory rate of the tumor” value was 88.9% and the Average tumor weight is 0.201 ± 0.123 g. Moreover, in test [3], the “Average inhibitory rate of tumor” value was 89.1% and the Average tumor weight is recorded as 0.212 ± 0.135 g. In test [4], the “Spleen CD40” value came to 264.7, the “Spleen CD80” value was 245.7, the “Spleen CD86” value is listed as 42.6 and the “Spleen MGCII” value is listed as 424.5. Moreover, in test [5], the “Lung (% CD8 + T cells)” value was determined as 1.6 ± 0.2% and the “Spleen (% CD8 + T cells)” value turned out to be 8.6 ± 1.8%.
Turning to `Nc1nc2c(ncn2[C@@H]2O[C@@H]3COP(=O)(O)O[C@H]4[C@@H](O)[C@H](n5cnc6c(N)ncnc65)O[C@@H]4COP(=O)(O)O[C@@H]2[C@@H]3O)c(=O)[nH]1` [cGAMP, 2′3′-cGAMP, reference compound], in test [1], the “Average points” value came to 1790 ± 180. In test [2], the “Average inhibitory rate of the tumor” value was found to be 61.0% and the Average tumor weight is listed as 0.712 ± 0.145 g. Further, in test [3], the “Average inhibitory rate of tumor” value amounted to 58.8% and the Average tumor weight is given as 0.761 ± 0.157 g. Also, in test [4], the “Spleen CD40” value was found to be 120.5, the “Spleen CD80” value was determined as 112.1, the “Spleen CD86” value is on record as 16.5 and the “Spleen MGCII” value amounted to 208.1. Also, in test [5], the “Lung (% CD8 + T cells)” value turned out to be 0.5 ± 0.2% and the “Spleen (% CD8 + T cells)” value is 2.2 ± 0.2%.
